# Data taken from patent US11291719B2, “Methods and compositions for modulating Akt3” (Augusta University Research Institute, Inc., priority 2016, dated 2022).
# Key:
# Type in all cases: cell-based
# Akt3 pS472 = target: T1, Akt3 pS472 (Homo sapiens, UniProt Q9Y243); test: Akt3 phosphorylation in A2780 cells; details: human ovarian carcinoma cells (A2780)
# T1 construct: expression of Akt1 pS473, Akt2 pS474, Akt3 pS472, and Akt pan 5473,474,472 in A2780 cells; endogenous in cells; host or cells: A2780 human ovarian carcinoma cells
# Excerpt: FIG. 10 is a bar graph showing the effect of mJJ64A on the expression of Akt1 pS473, Akt2 pS474, Akt3 pS472, and Akt pan 5473,474,472 in A2780 cells compared to control. The Y axis represents integrated density value.
# FoxP3 = test: Western blot of FoxP3 in Tconv cells during iTreg induction; details: TGF-β induced
# Excerpt: (§1) FIG. 12 is a western blot showing the expression of FoxP3, pAkt3, Akt3, pAkt1, and Akt1 in activated Tconv cells induced with TGF-β and treated with various concentrations of mJJ64A.
# mouse nTregs cells = test: Suppressive function of mouse nTregs in vitro; details: nTreg to Tconv ratios 0:1 to 3:1
# Excerpt: FIGS. 16A-16L is a set of histograms showing the suppressive function of untreated and mJJ64A treated nTregs. The ratio of nTreg to Tconv cells is 0:1, 0.5:1, 1:1, 2:1, and 3:1.
# Akt3 = target: T2, Akt3 (Homo sapiens, UniProt Q9Y243); test: Western blot of Akt3 in Tconv cells during iTreg induction; details: TGF-β induced
# T2 construct: endogenous in cells
# Excerpt: as §1
# T2 sequence (Q9Y243 whole entry): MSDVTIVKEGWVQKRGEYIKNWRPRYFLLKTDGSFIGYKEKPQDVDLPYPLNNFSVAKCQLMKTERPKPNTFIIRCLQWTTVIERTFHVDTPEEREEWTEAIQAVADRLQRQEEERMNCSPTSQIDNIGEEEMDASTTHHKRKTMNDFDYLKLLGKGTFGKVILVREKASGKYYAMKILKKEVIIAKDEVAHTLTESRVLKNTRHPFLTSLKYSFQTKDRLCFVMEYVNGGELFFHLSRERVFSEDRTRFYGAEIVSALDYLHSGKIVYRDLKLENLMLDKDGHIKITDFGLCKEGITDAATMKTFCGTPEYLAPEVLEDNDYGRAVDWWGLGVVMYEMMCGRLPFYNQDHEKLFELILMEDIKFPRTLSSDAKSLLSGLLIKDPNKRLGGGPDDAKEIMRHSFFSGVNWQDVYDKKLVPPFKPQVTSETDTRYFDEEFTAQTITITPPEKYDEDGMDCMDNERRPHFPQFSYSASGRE
# T1 sequence (Q9Y243 whole entry): as above
structure (smiles),measurement,setting,value
N#Cc1ccc2nccc(Nc3ccc(C(=O)Nc4ccc(Nc5ccncc5)cc4)cc3)c2c1 [Compound 2],phosphorylation of Akt3,Akt3 pS472,significantly increases
same,expression of FoxP3 in Tconv cells during iTreg induction,FoxP3,increased
same,suppressive function of mouse nTregs cells in vitro,mouse nTregs cells,increased
same,expression of Akt3 in Tconv cells during iTreg induction,Akt3,increased
